From US20260266848A1, “COMPOSITIONS AND METHODS FOR DIAGNOSING AND TREATING DYSTONIA” (Duke University, priority 2023, published 2026)

System: DYT-TOR1A MEF EVs
Test: Quantitative LC-MS/MS proteomics of EVs from drug-treated DYT-TOR1A MEF cultures (ritonavir, salubrinal)
Assay type: cell-based, mouse
[1] = DYT1/DYT1+Sal (inverse ratio), 20 μM, 24 h

## O=C(/C=C/c1ccccc1)NC(NC(=S)Nc1cccc2cccnc12)C(Cl)(Cl)Cl (stereo not drawn) [salubrinal]
20 μM, 24 h
  DYT disrupted proteins (n=363) with significant corrective effects of salubrinal: 13%
20 μM, 24 h, of 1974 proteins
  total EV proteins significantly modified by salubrinal: 9%
DYT1+Sal/DYT1, 20 μM, 24 h
  Acaa1a (ACAA1) EV abundance Log2_FC: −0.8007
  Ano6 (ANO6) EV abundance Log2_FC: −0.3535
  Ap1b1 (AP1B1) EV abundance Log2_FC: 0.5874
  Ar18b (ARL8B) EV abundance Log2_FC: −0.08283
  Bzw2 (BZW2) EV abundance Log2_FC: −0.03057
  Cryab (CRYAB) EV abundance Log2_FC: 1.025
  DIst (DLST) EV abundance Log2_FC: −0.5172
  Ehd4 (EHD4) EV abundance Log2_FC: −0.149
  Flna (FLNA) EV abundance Log2_FC: −0.07088
  Fscn1 (FSCN1) EV abundance Log2_FC: −0.1414
  Gart (GART) EV abundance Log2_FC: 0.05776
  Hist1h1b (H1-5) EV abundance Log2_FC: −0.1163
  Hnrnpc (HNRNPC) EV abundance Log2_FC: −0.2845
  Ipo9 (IPO9) EV abundance Log2_FC: 0.3059
  Jam3 (JAM3) EV abundance Log2_FC: −0.6132
  Lipg (LIPG) EV abundance Log2_FC: −0.4507
  Lrrc59 (LRRC59) EV abundance Log2_FC: −0.4226
  Mapk3 (MAPK3) EV abundance Log2_FC: 0.6764
  Mars (MARS1) EV abundance Log2_FC: −0.1637
  Mrc2 (MRC2) EV abundance Log2_FC: 0.01917
  Myh9 (MYH9) EV abundance Log2_FC: −0.2742
  Ndnf (NDNF) EV abundance Log2_FC: −0.5746
  Pcmt1 (PCMT1) EV abundance Log2_FC: 1.133
  Pi4ka (PI4KA) EV abundance Log2_FC: −1.039
  Pitpnb (PITPNB) EV abundance Log2_FC: 0.09822
  Prpsap2 (PRPSAP2) EV abundance Log2_FC: −0.0814
  Psmc5 (PSMC5) EV abundance Log2_FC: 0.4458
  Psmd12 (PSMD12) EV abundance Log2_FC: −0.203
  Psme4 (PSME4) EV abundance Log2_FC: −0.2099
  Ptma (PTMA) EV abundance Log2_FC: 1.235
  Rap2b (RAP2B) EV abundance Log2_FC: −0.3288
  Rbm3 (RBM3) EV abundance Log2_FC: 0.84
  Rhoa (RHOA) EV abundance Log2_FC: 0.2121
  Rpl10 (RPL10) EV abundance Log2_FC: −0.05107
  Rpl13a (RPL13A) EV abundance Log2_FC: −0.1384
  Rps13 (RPS13) EV abundance Log2_FC: 0.02541
  Sec31a (SEC31A) EV abundance Log2_FC: 0.1051
  Slc2a1 (SLC2A1) EV abundance Log2_FC: 0.1088
  Stom (STOM) EV abundance Log2_FC: 0.01864
  Tardbp (TARDBP) EV abundance Log2_FC: 0.4388
  Tgfb2 (TGFB2) EV abundance Log2_FC: 0.3062
  Tln1 (TLN1) EV abundance Log2_FC: −0.1915
  Tln2 (TLN2) EV abundance Log2_FC: −0.3236
  Tubb1 (TUBB1) EV abundance Log2_FC: −0.6949
  Usp7 (USP7) EV abundance Log2_FC: 1.365
  Wdr26 (WDR26) EV abundance Log2_FC: −0.03177
  Zyx (ZYX) EV abundance Log2_FC: −0.2196
[1]
  Acaa1a (ACAA1) EV abundance Log2_FC: 0.8007
  Ano6 (ANO6) EV abundance Log2_FC: 0.3535
  Ap1b1 (AP1B1) EV abundance Log2_FC: −0.5874
  Arl8b (ARL8B) EV abundance Log2_FC: 0.08283
  Bzw2 (BZW2) EV abundance Log2_FC: 0.03057
  Cryab (CRYAB) EV abundance Log2_FC: −1.025
  DIst (DLST) EV abundance Log2_FC: 0.5172
  Ehd4 (EHD4) EV abundance Log2_FC: 0.149
  Flna (FLNA) EV abundance Log2_FC: 0.07088
  Fscn1 (FSCN1) EV abundance Log2_FC: 0.1414
  Gart (GART) EV abundance Log2_FC: −0.05776
  Hist1h1b (H1-5) EV abundance Log2_FC: 0.1163
  Hnrnpc (HNRNPC) EV abundance Log2_FC: 0.2845
  Ipo9 (IPO9) EV abundance Log2_FC: −0.3059
  Jam3 (JAM3) EV abundance Log2_FC: 0.6132
  Lipg (LIPG) EV abundance Log2_FC: 0.4507
  Lrrc59 (LRRC59) EV abundance Log2_FC: 0.4226
  Mapk3 (MAPK3) EV abundance Log2_FC: −0.6764
  Mars (MARS1) EV abundance Log2_FC: 0.1637
  Mrc2 (MRC2) EV abundance Log2_FC: −0.01917
  Myh9 (MYH9) EV abundance Log2_FC: 0.2742
  Ndnf (NDNF) EV abundance Log2_FC: 0.5746
  Pcmt1 (PCMT1) EV abundance Log2_FC: −1.133
  Pi4ka (PI4KA) EV abundance Log2_FC: 1.039
  Pitpnb (PITPNB) EV abundance Log2_FC: −0.09822
  Prpsap2 (PRPSAP2) EV abundance Log2_FC: 0.0814
  Psmc5 (PSMC5) EV abundance Log2_FC: −0.4458
  Psmd12 (PSMD12) EV abundance Log2_FC: 0.203
  Psme4 (PSME4) EV abundance Log2_FC: 0.2099
  Ptma (PTMA) EV abundance Log2_FC: −1.235
  Rap2b (RAP2B) EV abundance Log2_FC: 0.3288
  Rbm3 (RBM3) EV abundance Log2_FC: −0.84
  Rhoa (RHOA) EV abundance Log2_FC: −0.2121
  Rpl10 (RPL10) EV abundance Log2_FC: 0.05107
  Rpl13a (RPL13A) EV abundance Log2_FC: 0.1384
  Rps13 (RPS13) EV abundance Log2_FC: −0.02541
  Sec31a (SEC31A) EV abundance Log2_FC: −0.1051
  Slc2a1 (SLC2A1) EV abundance Log2_FC: −0.1088
  Stom (STOM) EV abundance Log2_FC: −0.01864
  Tardbp (TARDBP) EV abundance Log2_FC: −0.4388
  Tgfb2 (TGFB2) EV abundance Log2_FC: −0.3062
  Tln1 (TLN1) EV abundance Log2_FC: 0.1915
  Tln2 (TLN2) EV abundance Log2_FC: 0.3236
  Tubb1 (TUBB1) EV abundance Log2_FC: 0.6949
  Usp7 (USP7) EV abundance Log2_FC: −1.365
  Wdr26 (WDR26) EV abundance Log2_FC: 0.03177
  Zyx (ZYX) EV abundance Log2_FC: 0.2196
DYT + Sal/DYT, 20 μM, 24 h
  Acaa1a (ACAA1) EV abundance Cohen's d: −0.1738
  Ano6 (ANO6) EV abundance Cohen's d: 0.1593
  Ap1b1 (AP1B1) EV abundance Cohen's d: −0.5479
  Ar18b (ARL8B) EV abundance Cohen's d: −0.5773
  Bzw2 (BZW2) EV abundance Cohen's d: 0.2815
  Cryab (CRYAB) EV abundance Cohen's d: 1.101
  DIst (DLST) EV abundance Cohen's d: −0.973
  Ehd4 (EHD4) EV abundance Cohen's d: −0.4717
  Flna (FLNA) EV abundance Cohen's d: 0.4828
  Fscn1 (FSCN1) EV abundance Cohen's d: 0.7138
  Gart (GART) EV abundance Cohen's d: 0.6261
  Hist1h1b (H1-5) EV abundance Cohen's d: 0.4792
  Hnrnpc (HNRNPC) EV abundance Cohen's d: −0.5111
  Ipo9 (IPO9) EV abundance Cohen's d: 0.1652
  Jam3 (JAM3) EV abundance Cohen's d: −0.5387
  Lipg (LIPG) EV abundance Cohen's d: 0.6163
  Lrrc59 (LRRC59) EV abundance Cohen's d: 0.4615
  Mapk3 (MAPK3) EV abundance Cohen's d: −0.3187
  Mars (MARS1) EV abundance Cohen's d: −0.2456
  Mrc2 (MRC2) EV abundance Cohen's d: 0.3301
  Myh9 (MYH9) EV abundance Cohen's d: −0.2884
  Ndnf (NDNF) EV abundance Cohen's d: −0.4227
  Pcmt1 (PCMT1) EV abundance Cohen's d: −0.2746
  Pi4ka (PI4KA) EV abundance Cohen's d: 0.7656
  Pitpnb (PITPNB) EV abundance Cohen's d: 0.6644
  Prpsap2 (PRPSAP2) EV abundance Cohen's d: −1.257
  Psmc5 (PSMC5) EV abundance Cohen's d: 1.22
  Psmd12 (PSMD12) EV abundance Cohen's d: 1.234
  Psme4 (PSME4) EV abundance Cohen's d: −0.3917
  Ptma (PTMA) EV abundance Cohen's d: 0.9729
  Rap2b (RAP2B) EV abundance Cohen's d: −0.249
  Rbm3 (RBM3) EV abundance Cohen's d: 0.2607
  Rhoa (RHOA) EV abundance Cohen's d: −0.6572
  Rpl10 (RPL10) EV abundance Cohen's d: −0.3597
  Rpl13a (RPL13A) EV abundance Cohen's d: −0.4797
  Rps13 (RPS13) EV abundance Cohen's d: −0.1409
  Sec31a (SEC31A) EV abundance Cohen's d: −0.2355
  Slc2a1 (SLC2A1) EV abundance Cohen's d: −0.3172
  Stom (STOM) EV abundance Cohen's d: −0.4048
  Tardbp (TARDBP) EV abundance Cohen's d: 0.4522
  Tgfb2 (TGFB2) EV abundance Cohen's d: −0.3293
  Tln1 (TLN1) EV abundance Cohen's d: 0.5665
  Tln2 (TLN2) EV abundance Cohen's d: 0.5488
  Tubb1 (TUBB1) EV abundance Cohen's d: 0.246
  Usp7 (USP7) EV abundance Cohen's d: 1.229
  Wdr26 (WDR26) EV abundance Cohen's d: −0.1895
  Zyx (ZYX) EV abundance Cohen's d: −0.5814
DYT-TOR1A MEF EVs, 20 μM each, 24 h
  Pearson r between ritonavir and salubrinal effects on putative DYT-TOR1A biomarker proteins: 0.47
DYT/DYT + Sal, 20 μM, 24 h
  Acaa1a (ACAA1) EV abundance Cohen's d: −0.1738
  Ano6 (ANO6) EV abundance Cohen's d: 0.1593
  Ap1b1 (AP1B1) EV abundance Cohen's d: −0.5479
  Arl8b (ARL8B) EV abundance Cohen's d: −0.5773
  Bzw2 (BZW2) EV abundance Cohen's d: 0.2815
  Cryab (CRYAB) EV abundance Cohen's d: 1.101
  DIst (DLST) EV abundance Cohen's d: −0.973
  Ehd4 (EHD4) EV abundance Cohen's d: −0.4717
  Flna (FLNA) EV abundance Cohen's d: 0.4828
  Fscn1 (FSCN1) EV abundance Cohen's d: 0.7138
  Gart (GART) EV abundance Cohen's d: 0.6261
  Hist1h1b (H1-5) EV abundance Cohen's d: 0.4792
  Hnrnpc (HNRNPC) EV abundance Cohen's d: −0.5111
  Ipo9 (IPO9) EV abundance Cohen's d: 0.1652
  Jam3 (JAM3) EV abundance Cohen's d: −0.5387
  Lipg (LIPG) EV abundance Cohen's d: 0.6163
  Lrrc59 (LRRC59) EV abundance Cohen's d: 0.4615
  Mapk3 (MAPK3) EV abundance Cohen's d: −0.3187
  Mars (MARS1) EV abundance Cohen's d: −0.2456
  Mrc2 (MRC2) EV abundance Cohen's d: 0.3301
  Myh9 (MYH9) EV abundance Cohen's d: −0.2884
  Ndnf (NDNF) EV abundance Cohen's d: −0.4227
  Pcmt1 (PCMT1) EV abundance Cohen's d: −0.2746
  Pi4ka (PI4KA) EV abundance Cohen's d: 0.7656
  Pitpnb (PITPNB) EV abundance Cohen's d: 0.6644
  Prpsap2 (PRPSAP2) EV abundance Cohen's d: −1.257
  Psmc5 (PSMC5) EV abundance Cohen's d: 1.22
  Psmd12 (PSMD12) EV abundance Cohen's d: 1.234
  Psme4 (PSME4) EV abundance Cohen's d: −0.3917
  Ptma (PTMA) EV abundance Cohen's d: 0.9729
  Rap2b (RAP2B) EV abundance Cohen's d: −0.249
  Rbm3 (RBM3) EV abundance Cohen's d: 0.2607
  Rhoa (RHOA) EV abundance Cohen's d: −0.6572
  Rpl10 (RPL10) EV abundance Cohen's d: −0.3597
  Rpl13a (RPL13A) EV abundance Cohen's d: −0.4797
  Rps13 (RPS13) EV abundance Cohen's d: −0.1409
  Sec31a (SEC31A) EV abundance Cohen's d: −0.2355
  Slc2a1 (SLC2A1) EV abundance Cohen's d: −0.3172
  Stom (STOM) EV abundance Cohen's d: −0.4048
  Tardbp (TARDBP) EV abundance Cohen's d: 0.4522
  Tgfb2 (TGFB2) EV abundance Cohen's d: −0.3293
  Tln1 (TLN1) EV abundance Cohen's d: 0.5665
  Tln2 (TLN2) EV abundance Cohen's d: 0.5488
  Tubb1 (TUBB1) EV abundance Cohen's d: 0.246
  Usp7 (USP7) EV abundance Cohen's d: 1.229
  Wdr26 (WDR26) EV abundance Cohen's d: −0.1895
  Zyx (ZYX) EV abundance Cohen's d: −0.5814
salubrinal
  proteins reduced in both mouse and human EVs whose abundance is modulated toward correction in DYT1 cells (and toward DYT1-like by ISRIB in WT cells): 4 of the 7
